In the NIST ThermoML archive (doi:10.1021/je3011979):

Legend:
[1] = excess molar enthalpy (molar enthalpy of mixing); xn = mol fraction of the nth substance listed; conditions: 101 kPa, Liquid, Calvet calorimetry
[2] = xn = mol fraction of the nth substance listed; conditions: 101 kPa, Liquid, Vibrating tube method

CCCOC(C)=O [propyl ethanoate] + CCCCCCCCCC
Conditions	excess molar enthalpy [kcal/mol]	mass density [kg/m3]
[1], 291.15 K, x1 = 0.0703	0.0935	–
[1], 291.15 K, x1 = 0.1623	0.18	–
[1], 291.15 K, x1 = 0.2528	0.2536	–
[1], 291.15 K, x1 = 0.3401	0.305	–
[1], 291.15 K, x1 = 0.4179	0.3344	–
[1], 291.15 K, x1 = 0.4892	0.3482	–
[1], 291.15 K, x1 = 0.5501	0.3489	–
[1], 291.15 K, x1 = 0.6049	0.3413	–
[1], 291.15 K, x1 = 0.615	0.3377	–
[1], 291.15 K, x1 = 0.6649	0.3196	–
[1], 291.15 K, x1 = 0.7166	0.2935	–
[1], 291.15 K, x1 = 0.7751	0.2524	–
[1], 291.15 K, x1 = 0.8324	0.202	–
[1], 291.15 K, x1 = 0.8924	0.14	–
[1], 291.15 K, x1 = 0.9524	0.0739	–
[1], 298.15 K, x1 = 0.1028	0.127	–
[1], 298.15 K, x1 = 0.2102	0.212	–
[1], 298.15 K, x1 = 0.3062	0.2768	–
[1], 298.15 K, x1 = 0.3924	0.3148	–
[1], 298.15 K, x1 = 0.4676	0.3332	–
[1], 298.15 K, x1 = 0.5348	0.3384	–
[1], 298.15 K, x1 = 0.5925	0.3334	–
[1], 298.15 K, x1 = 0.6163	0.3258	–
[1], 298.15 K, x1 = 0.6615	0.3119	–
[1], 298.15 K, x1 = 0.71	0.2856	–
[1], 298.15 K, x1 = 0.7601	0.2572	–
[1], 298.15 K, x1 = 0.8123	0.215	–
[1], 298.15 K, x1 = 0.8626	0.169	–
[1], 298.15 K, x1 = 0.9119	0.118	–
[1], 298.15 K, x1 = 0.9581	0.0619	–
[1], 318.15 K, x1 = 0.1083	0.133	–
[1], 318.15 K, x1 = 0.2064	0.2204	–
[1], 318.15 K, x1 = 0.3068	0.2894	–
[1], 318.15 K, x1 = 0.3885	0.326	–
[1], 318.15 K, x1 = 0.4625	0.3456	–
[1], 318.15 K, x1 = 0.5203	0.3475	–
[1], 318.15 K, x1 = 0.571	0.3423	–
[1], 318.15 K, x1 = 0.6098	0.3325	–
[1], 318.15 K, x1 = 0.6588	0.3176	–
[1], 318.15 K, x1 = 0.7129	0.2928	–
[1], 318.15 K, x1 = 0.7682	0.2588	–
[1], 318.15 K, x1 = 0.8288	0.212	–
[1], 318.15 K, x1 = 0.8862	0.153	–
[1], 318.15 K, x1 = 0.948	0.0829	–
[2], 291.15 K, x1 = 0.0491	–	735.2
[2], 291.15 K, x1 = 0.1081	–	740.2
[2], 291.15 K, x1 = 0.2054	–	749.4
[2], 291.15 K, x1 = 0.2933	–	758.8
[2], 291.15 K, x1 = 0.372	–	768
[2], 291.15 K, x1 = 0.4514	–	778.3
[2], 291.15 K, x1 = 0.5221	–	788.4
[2], 291.15 K, x1 = 0.5892	–	798.8
[2], 291.15 K, x1 = 0.6468	–	808.4
[2], 291.15 K, x1 = 0.7079	–	819.6
[2], 291.15 K, x1 = 0.7955	–	837.5
[2], 291.15 K, x1 = 0.8151	–	841.8
[2], 291.15 K, x1 = 0.8554	–	851.2
[2], 291.15 K, x1 = 0.8932	–	860.5
[2], 291.15 K, x1 = 0.9454	–	874.3
[2], 291.15 K, x1 = 0.9719	–	881.5
[2], 291.15 K, x1 = 1	–	889.6
[2], 298.15 K, x1 = 0.0402	–	729.1
[2], 298.15 K, x1 = 0.1191	–	735.7
[2], 298.15 K, x1 = 0.2077	–	744
[2], 298.15 K, x1 = 0.2921	–	752.8
[2], 298.15 K, x1 = 0.3727	–	762.1
[2], 298.15 K, x1 = 0.4509	–	772
[2], 298.15 K, x1 = 0.5172	–	781.2
[2], 298.15 K, x1 = 0.5788	–	790.5
[2], 298.15 K, x1 = 0.6343	–	799.5
[2], 298.15 K, x1 = 0.6912	–	809.6
[2], 298.15 K, x1 = 0.7504	–	820.9
[2], 298.15 K, x1 = 0.7988	–	830.9
[2], 298.15 K, x1 = 0.8462	–	841.5
[2], 298.15 K, x1 = 0.8882	–	851.7
[2], 298.15 K, x1 = 0.9267	–	861.6
[2], 298.15 K, x1 = 0.9583	–	870.2
[2], 298.15 K, x1 = 1	–	882.5
[2], 318.15 K, x1 = 0.064	–	715.5
[2], 318.15 K, x1 = 0.1164	–	719.7
[2], 318.15 K, x1 = 0.1961	–	726.8
[2], 318.15 K, x1 = 0.2794	–	734.8
[2], 318.15 K, x1 = 0.3548	–	742.9
[2], 318.15 K, x1 = 0.4333	–	752.2
[2], 318.15 K, x1 = 0.4936	–	760
[2], 318.15 K, x1 = 0.5563	–	768.6
[2], 318.15 K, x1 = 0.6213	–	778.5
[2], 318.15 K, x1 = 0.6781	–	788
[2], 318.15 K, x1 = 0.7226	–	795.8
[2], 318.15 K, x1 = 0.7733	–	805.5
[2], 318.15 K, x1 = 0.8247	–	816.1
[2], 318.15 K, x1 = 0.867	–	825.5
[2], 318.15 K, x1 = 0.9092	–	835.5
[2], 318.15 K, x1 = 0.9463	–	844.9
[2], 318.15 K, x1 = 1	–	859.8
[2], 328.15 K, x1 = 0.0485	–	706.6
[2], 328.15 K, x1 = 0.1075	–	711.1
[2], 328.15 K, x1 = 0.196	–	718.6
[2], 328.15 K, x1 = 0.2952	–	728
[2], 328.15 K, x1 = 0.3758	–	736.6
[2], 328.15 K, x1 = 0.4553	–	746
[2], 328.15 K, x1 = 0.5227	–	754.7
[2], 328.15 K, x1 = 0.5818	–	763
[2], 328.15 K, x1 = 0.6506	–	773.6
[2], 328.15 K, x1 = 0.7058	–	782.9
[2], 328.15 K, x1 = 0.7598	–	792.6
[2], 328.15 K, x1 = 0.8204	–	804.6
[2], 328.15 K, x1 = 0.8511	–	811.2
[2], 328.15 K, x1 = 0.8851	–	818.8
[2], 328.15 K, x1 = 0.9321	–	830.2
[2], 328.15 K, x1 = 0.958	–	836.9
[2], 328.15 K, x1 = 1	–	848.3
